Reference: article PMC3523469 (Investigational New Drugs, 2012)
Read-outs that look alike come from different tables or passages of the source.

Format: in vivo, Japanese patients

What does the source list for `COc1cc2ncnc(Nc3ccc(F)c(Cl)c3)c2cc1NC(=O)/C=C/CN1CCCCC1` [dacomitinib, Dacomitinib]?
Nausea, number of patients with treatment-related AE (15 mg QD (n = 3), G3): 0; Palmar–plantar erythrodysesthesia, number of patients with treatment-related AE (15 mg QD (n = 3), G3): 0; Paronychia, number of patients with treatment-related AE (15 mg QD (n = 3), G3): 0; Proteinuria, number of patients with treatment-related AE (15 mg QD (n = 3), G3): 0; Rash, number of patients with treatment-related AE (15 mg QD (n = 3), G3): 0; Skin fissures, number of patients with treatment-related AE (15 mg QD (n = 3), G3): 0; Stomatitis, number of patients with treatment-related AE (15 mg QD (n = 3), G3): 0; Weight decreased, number of patients with treatment-related AE (15 mg QD (n = 3), G3): 0; Alanine aminotransferase increased, number of patients with treatment-related AE (30 mg QD (n = 3), All): 0; Aspartate aminotransferase increased, number of patients with treatment-related AE (30 mg QD (n = 3), All): 0; Blood bilirubin increased, number of patients with treatment-related AE (30 mg QD (n = 3), All): 0; Cheilitis, number of patients with treatment-related AE (30 mg QD (n = 3), All): 1; Conjunctivitis, number of patients with treatment-related AE (30 mg QD (n = 3), All): 1; Decreased appetite, number of patients with treatment-related AE (30 mg QD (n = 3), All): 1; Diarrhea, number of patients with treatment-related AE (30 mg QD (n = 3), All): 3; Dry skin, number of patients with treatment-related AE (30 mg QD (n = 3), All): 1; ECG QT prolonged, number of patients with treatment-related AE (30 mg QD (n = 3), All): 0; Edema, number of patients with treatment-related AE (30 mg QD (n = 3), All): 0; Fatigue, number of patients with treatment-related AE (30 mg QD (n = 3), All): 1; Hematuria, number of patients with treatment-related AE (30 mg QD (n = 3), All): 0; Hypertrichosis, number of patients with treatment-related AE (30 mg QD (n = 3), All): 0; Leukopenia, number of patients with treatment-related AE (30 mg QD (n = 3), All): 0; Nausea, number of patients with treatment-related AE (30 mg QD (n = 3), All): 1; Palmar–plantar erythrodysesthesia, number of patients with treatment-related AE (30 mg QD (n = 3), All): 2; Paronychia, number of patients with treatment-related AE (30 mg QD (n = 3), All): 2; Proteinuria, number of patients with treatment-related AE (30 mg QD (n = 3), All): 0; Rash, number of patients with treatment-related AE (30 mg QD (n = 3), All): 3; Skin fissures, number of patients with treatment-related AE (30 mg QD (n = 3), All): 0; Stomatitis, number of patients with treatment-related AE (30 mg QD (n = 3), All): 2; Weight decreased, number of patients with treatment-related AE (30 mg QD (n = 3), All): 1; Alanine aminotransferase increased, number of patients with treatment-related AE (30 mg QD (n = 3), G1): 0; Aspartate aminotransferase increased, number of patients with treatment-related AE (30 mg QD (n = 3), G1): 0; Blood bilirubin increased, number of patients with treatment-related AE (30 mg QD (n = 3), G1): 0; Cheilitis, number of patients with treatment-related AE (30 mg QD (n = 3), G1): 1; Conjunctivitis, number of patients with treatment-related AE (30 mg QD (n = 3), G1): 1; Decreased appetite, number of patients with treatment-related AE (30 mg QD (n = 3), G1): 0; Diarrhea, number of patients with treatment-related AE (30 mg QD (n = 3), G1): 3; Dry skin, number of patients with treatment-related AE (30 mg QD (n = 3), G1): 0; ECG QT prolonged, number of patients with treatment-related AE (30 mg QD (n = 3), G1): 0; Edema, number of patients with treatment-related AE (30 mg QD (n = 3), G1): 0; Fatigue, number of patients with treatment-related AE (30 mg QD (n = 3), G1): 0; Hematuria, number of patients with treatment-related AE (30 mg QD (n = 3), G1): 0; Hypertrichosis, number of patients with treatment-related AE (30 mg QD (n = 3), G1): 0; Leukopenia, number of patients with treatment-related AE (30 mg QD (n = 3), G1): 0; Nausea, number of patients with treatment-related AE (30 mg QD (n = 3), G1): 1; Palmar–plantar erythrodysesthesia, number of patients with treatment-related AE (30 mg QD (n = 3), G1): 0; Paronychia, number of patients with treatment-related AE (30 mg QD (n = 3), G1): 0; Proteinuria, number of patients with treatment-related AE (30 mg QD (n = 3), G1): 0; Rash, number of patients with treatment-related AE (30 mg QD (n = 3), G1): 1; Skin fissures, number of patients with treatment-related AE (30 mg QD (n = 3), G1): 0; Stomatitis, number of patients with treatment-related AE (30 mg QD (n = 3), G1): 1; Weight decreased, number of patients with treatment-related AE (30 mg QD (n = 3), G1): 0; Alanine aminotransferase increased, number of patients with treatment-related AE (30 mg QD (n = 3), G2): 0; Aspartate aminotransferase increased, number of patients with treatment-related AE (30 mg QD (n = 3), G2): 0; Blood bilirubin increased, number of patients with treatment-related AE (30 mg QD (n = 3), G2): 0; Cheilitis, number of patients with treatment-related AE (30 mg QD (n = 3), G2): 0; Conjunctivitis, number of patients with treatment-related AE (30 mg QD (n = 3), G2): 0; Decreased appetite, number of patients with treatment-related AE (30 mg QD (n = 3), G2): 1; Diarrhea, number of patients with treatment-related AE (30 mg QD (n = 3), G2): 0; Dry skin, number of patients with treatment-related AE (30 mg QD (n = 3), G2): 1; ECG QT prolonged, number of patients with treatment-related AE (30 mg QD (n = 3), G2): 0; Edema, number of patients with treatment-related AE (30 mg QD (n = 3), G2): 0; Fatigue, number of patients with treatment-related AE (30 mg QD (n = 3), G2): 1; Hematuria, number of patients with treatment-related AE (30 mg QD (n = 3), G2): 0; Hypertrichosis, number of patients with treatment-related AE (30 mg QD (n = 3), G2): 0; Leukopenia, number of patients with treatment-related AE (30 mg QD (n = 3), G2): 0; Nausea, number of patients with treatment-related AE (30 mg QD (n = 3), G2): 0; Palmar–plantar erythrodysesthesia, number of patients with treatment-related AE (30 mg QD (n = 3), G2): 2; Paronychia, number of patients with treatment-related AE (30 mg QD (n = 3), G2): 2; Proteinuria, number of patients with treatment-related AE (30 mg QD (n = 3), G2): 0; Rash, number of patients with treatment-related AE (30 mg QD (n = 3), G2): 2; Skin fissures, number of patients with treatment-related AE (30 mg QD (n = 3), G2): 0; Stomatitis, number of patients with treatment-related AE (30 mg QD (n = 3), G2): 1; Weight decreased, number of patients with treatment-related AE (30 mg QD (n = 3), G2): 1; Alanine aminotransferase increased, number of patients with treatment-related AE (30 mg QD (n = 3), G3): 0; Aspartate aminotransferase increased, number of patients with treatment-related AE (30 mg QD (n = 3), G3): 0; Blood bilirubin increased, number of patients with treatment-related AE (30 mg QD (n = 3), G3): 0; Cheilitis, number of patients with treatment-related AE (30 mg QD (n = 3), G3): 0; Conjunctivitis, number of patients with treatment-related AE (30 mg QD (n = 3), G3): 0; Decreased appetite, number of patients with treatment-related AE (30 mg QD (n = 3), G3): 0; Diarrhea, number of patients with treatment-related AE (30 mg QD (n = 3), G3): 0
